Measurements published in patent publication US20100204224A1, “AZACYCLIC COMPOUNDS AS INHIBITORS OF SENSORY NEURONE SPECIFIC SODIUM CHANNELS” (priority 2005, published 2010).
Structures can show the parent of a compound that is named as a salt.

These compounds were tested against T1, human Nav1.8 (hNav1.8) ion channel (Homo sapiens, UniProt Q9Y5Y9) (assay: Inhibition of human Nav1.8 stably expressed in SH-SY-5Y cells (membrane potential dye fluorescence assay)). Settings: SH-SY-5Y hNav1.8 cells; FLIPR membrane potential dye; 10 μM pyrethroid, 250 nM TTX; test concentration range 100 μM-0.05 μM; read-out: hNav1.8 IC50.
T1 construct: expressed in transfected cells
T1 sequence (Q9Y5Y9 whole entry): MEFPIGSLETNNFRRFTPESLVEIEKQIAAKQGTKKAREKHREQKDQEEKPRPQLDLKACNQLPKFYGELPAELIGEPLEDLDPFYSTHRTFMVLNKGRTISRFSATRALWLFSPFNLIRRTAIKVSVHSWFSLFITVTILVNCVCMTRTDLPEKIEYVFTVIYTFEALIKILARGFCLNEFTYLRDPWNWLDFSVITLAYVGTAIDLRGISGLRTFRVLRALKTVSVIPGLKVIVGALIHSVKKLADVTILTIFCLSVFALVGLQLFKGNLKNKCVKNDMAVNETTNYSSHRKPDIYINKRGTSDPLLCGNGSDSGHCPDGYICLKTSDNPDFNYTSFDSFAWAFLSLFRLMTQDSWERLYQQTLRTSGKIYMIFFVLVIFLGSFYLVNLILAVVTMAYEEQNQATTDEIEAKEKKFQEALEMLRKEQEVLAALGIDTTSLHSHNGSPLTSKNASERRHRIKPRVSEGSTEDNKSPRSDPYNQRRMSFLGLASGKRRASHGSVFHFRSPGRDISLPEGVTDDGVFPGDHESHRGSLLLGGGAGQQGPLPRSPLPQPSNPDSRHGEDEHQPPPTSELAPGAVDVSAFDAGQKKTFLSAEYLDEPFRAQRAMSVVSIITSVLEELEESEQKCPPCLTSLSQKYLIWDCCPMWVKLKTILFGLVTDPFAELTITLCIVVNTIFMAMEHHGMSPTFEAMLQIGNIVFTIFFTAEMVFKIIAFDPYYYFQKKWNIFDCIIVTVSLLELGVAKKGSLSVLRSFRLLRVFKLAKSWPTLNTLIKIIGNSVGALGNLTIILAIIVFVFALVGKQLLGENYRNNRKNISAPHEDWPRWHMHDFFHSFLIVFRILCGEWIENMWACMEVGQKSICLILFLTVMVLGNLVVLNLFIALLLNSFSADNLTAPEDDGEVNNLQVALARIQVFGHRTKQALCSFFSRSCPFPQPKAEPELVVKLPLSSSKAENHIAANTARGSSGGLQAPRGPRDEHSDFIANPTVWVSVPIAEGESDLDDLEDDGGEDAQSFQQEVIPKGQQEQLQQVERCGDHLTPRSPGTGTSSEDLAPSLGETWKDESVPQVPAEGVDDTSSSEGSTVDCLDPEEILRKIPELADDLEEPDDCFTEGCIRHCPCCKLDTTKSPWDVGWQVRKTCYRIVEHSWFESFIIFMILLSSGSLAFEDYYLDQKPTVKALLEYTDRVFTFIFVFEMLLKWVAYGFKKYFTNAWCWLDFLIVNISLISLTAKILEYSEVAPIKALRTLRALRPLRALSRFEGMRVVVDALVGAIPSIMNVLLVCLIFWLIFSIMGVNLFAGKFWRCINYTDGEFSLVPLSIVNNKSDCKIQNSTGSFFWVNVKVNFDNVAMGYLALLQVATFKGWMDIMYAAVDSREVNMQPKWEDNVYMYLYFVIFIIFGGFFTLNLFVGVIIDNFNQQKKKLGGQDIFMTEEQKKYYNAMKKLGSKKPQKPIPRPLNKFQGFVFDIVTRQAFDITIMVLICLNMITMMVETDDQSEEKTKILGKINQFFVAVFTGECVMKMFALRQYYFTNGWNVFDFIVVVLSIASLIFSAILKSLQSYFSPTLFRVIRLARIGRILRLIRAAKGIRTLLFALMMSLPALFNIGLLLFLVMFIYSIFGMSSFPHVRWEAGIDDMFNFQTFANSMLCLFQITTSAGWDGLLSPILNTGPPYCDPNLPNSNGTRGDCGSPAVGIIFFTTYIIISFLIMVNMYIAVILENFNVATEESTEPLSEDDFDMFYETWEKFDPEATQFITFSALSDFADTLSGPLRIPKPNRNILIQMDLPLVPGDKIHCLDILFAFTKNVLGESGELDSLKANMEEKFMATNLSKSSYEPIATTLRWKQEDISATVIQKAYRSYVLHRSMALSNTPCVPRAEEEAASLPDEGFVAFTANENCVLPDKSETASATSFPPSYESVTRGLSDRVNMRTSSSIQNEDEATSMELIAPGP
Format: cell-based
For CC(c1ccccc1C(F)(F)F)N1CC2CC1CN2C(=O)Nc1ccc(Oc2ccccc2)cc1 (single isomer, unassigned) [Example 60, 5-[1-(2-Trifluoromethyl-phenyl)-ethyl]-2,5-diaza-bicyclo[2.2.1]heptane-2-carboxylic acid (4-phenoxy-phenyl)-amide], the IC50 was 1.48 µM. In the case of CCOCCOc1ccc(NC(=O)N2CC3CC2CN3C(C)c2ccccc2C)cc1 (stereo not shown) [Example 17, 5-(1-o-Tolyl-ethyl)-2,5-diaza-bicyclo[2.2.1]heptane-2-carboxylic acid [4-(2-ethoxy-ethoxy)-phenyl]-amide], the IC50 is reported as 28 µM. With CC(c1ccccc1Cl)N1CC2CC1CN2C(=O)Nc1ccc(Oc2ccc(Cl)cc2)cc1 (stereo not shown) [Example 129, 5-[1-(2-Chloro-phenyl)-ethyl]-2,5-diaza-bicyclo[2.2.1]heptane-2-carboxylic acid [4-(4-chloro-phenoxy)-phenyl]-amide] the IC50 was 3.8 µM. In the case of Cc1ccccc1C(C)N1CC2CC1CN2C(=O)Nc1ccc(Cc2ccccc2)cc1 (stereo not shown) [Example 35, 5-(1-o-Tolyl-ethyl)-2,5-diaza-bicyclo[2.2.1]heptane-2-carboxylic acid (4-benzyl-phenyl)-amide], the IC50 is reported as 0.59 µM. Work on “1-{5-[1-(2,5-Dichloro-phenyl)-ethyl]-2,5-diaza-bicyclo[2.2.1]hept-2-yl}-2-[4-(4-fluoro-phenoxy)-phenyl]-ethanone [Example 157]” yielded an IC50 of no less than 30 µM. With Cc1ccc(Oc2ccc(NC(=O)N3CC4CC3CN4C(C)c3ccc(Cl)cc3Cl)cc2)cc1 (stereo not shown) [Example 127, 5-[1-(2,4-Dichloro-phenyl)-ethyl]-2,5-diaza-bicyclo[2.2.1]heptane-2-carboxylic acid (4-p-tolyloxy-phenyl)-amide] the IC50 was 22.1 µM. CC(c1ccccc1Cl)N1CC2CC1CN2C(=O)c1ccc(Oc2ccc(F)cc2)cc1 (stereo not shown) [Example 152, {5-[1-(2-Chloro-phenyl)-ethyl]-2,5-diaza-bicyclo[2.2.1]hept-2-yl}-[4-(4-fluoro-phenoxy)-phenyl]-methanone] was tested, and the IC50 was 2.52 µM. For Cc1ccccc1C(C)N1CC2CC1CN2C(=O)Nc1ccc(OC2CCOCC2)cc1 (stereo not shown) [Example 22, 5-(1-o-Tolyl-ethyl)-2,5-diaza-bicyclo[2.2.1]heptane-2-carboxylic acid [4-(tetrahydro-pyran-4-yloxy)-phenyl]-amide], the IC50 was 18.9 µM. O=C(Nc1ccc(C(F)(F)F)cc1)N1CC2CC1CN2C1Cc2ccccc2C1 (stereo not shown) [Example 99, 5-Indan-2-yl-2,5-diaza-bicyclo[2.2.1]heptane-2-carboxylic acid (4-trifluoromethyl-phenyl)-amide] was tested, and the IC50 was 2.38 µM. CC(c1ccc(F)cc1Cl)N1CC2CC1CN2C(=O)Nc1ccc(Oc2ccc(F)cc2)cc1 (stereo not shown) [Example 133, 5-[1-(2-Chloro-4-fluoro-phenyl)-ethyl]-2,5-diaza-bicyclo[2.2.1]heptane-2-carboxylic acid [4-(4-fluoro-phenoxy)-phenyl]-amide] gave an IC50 of 1.19 µM. CC(c1ccccc1C(F)(F)F)N1CC2CC1CN2C(=O)Nc1cccc(Oc2ccccc2)c1 (stereo not shown) [Example 61, 5-[1-(2-Trifluoromethyl-phenyl)-ethyl]-2,5-diaza-bicyclo[2.2.1]heptane-2-carboxylic acid (3-phenoxy-phenyl)-amide] gave an IC50 of 4.64 µM. CC(c1ccccc1Br)N1CC2CC1CN2C(=O)c1ccc(Oc2ccccc2)cc1 (stereo not shown) [Example 159, {5-[1-(2-Bromo-phenyl)-ethyl]-2,5-diaza-bicyclo[2.2.1]hept-2-yl}-(4-phenoxy-phenyl)-methanone] showed an IC50 of 14.8 µM. Compound CC(c1ccccc1Cl)N1CC2CC1CN2C(=O)Nc1ccc(Oc2cccc(F)c2)cc1 (stereo not shown) [Example 108, 5-[1-(2-Chloro-phenyl)-ethyl]-2,5-diaza-bicyclo[2.2.1]heptane-2-carboxylic acid [4-(3-fluoro-phenoxy)-phenyl]-amide] has an IC50 of 0.6 µM. Cc1ccccc1C(C)N1CC2CC1CN2C(=O)Nc1ccc(OCCc2scnc2C)cc1 (stereo not shown) [Example 42, 5-(1-o-Tolyl-ethyl)-2,5-diaza-bicyclo[2.2.1]heptane-2-carboxylic acid {4-[2-(4-methyl-thiazol-5-yl)-ethoxy]-phenyl}-amide] gave an IC50 of 2.1 µM. Work on Cc1ccccc1C(C)N1CC2CC1CN2C(=O)NC(C)c1ccc(F)cc1 (stereo not shown) [Example 69, 5-(1-o-Tolyl-ethyl)-2,5-diaza-bicyclo[2.2.1]heptane-2-carboxylic acid [1-(4-fluoro-phenyl)-ethyl]-amide] yielded an IC50 of 17.1 µM. Compound CC(c1ccccc1C(F)(F)F)N1CC2CC1CN2C(=O)Nc1cccc(C(F)(F)F)c1 (stereo not shown) [Example 55, 5-[1-(2-Trifluoromethyl-phenyl)-ethyl]-2,5-diaza-bicyclo[2.2.1]heptane-2-carboxylic acid (3-trifluoromethyl-phenyl)-amide] has an IC50 of 4.24 µM. For Cc1cc(F)ccc1C(C)N1CC2CC1CN2C(=O)Nc1ccc(Oc2ccc(F)cc2)cc1 (stereo not shown) [Example 75, 5-[1-(4-Fluoro-2-methyl-phenyl)-ethyl]-2,5-diaza-bicyclo[2.2.1]heptane-2-carboxylic acid [4-(4-fluoro-phenoxy)-phenyl]-amide], the IC50 was 0.57 µM. With O=C(Nc1ccc(Oc2ccc(F)cc2)cc1)N1CC2CC1CN2C1CCc2cc(F)ccc21 (stereo not shown) [Example 92, 5-(5-Fluoro-indan-1-yl)-2,5-diaza-bicyclo[2.2.1]heptane-2-carboxylic acid [4-(4-fluoro-phenoxy)-phenyl]-amide] the IC50 was 0.36 µM. Work on O=C(Nc1ccc(Oc2ccccc2)cc1)N1CC2CN(Cc3ccccc3)CC2C1 (stereo not shown) [Example 89, 5-Benzyl-hexahydro-pyrrolo[3,4-c]pyrrole-2-carboxylic acid (4-phenoxy-phenyl)-amide] yielded an IC50 of 0.4 µM. CC(c1ccc(F)cc1)N1CC2CC1CN2C(=O)Nc1cccc(C(F)(F)F)c1 (stereo not shown) [Example 47, 5-[1-(4-Fluoro-phenyl)-ethyl]-2,5-diaza-bicyclo[2.2.1]heptane-2-carboxylic acid (3-trifluoromethyl-phenyl)-amide] gave an IC50 of 2.61 µM. CC(c1ccccc1Cl)N1CC2CC1CN2C(=O)c1cc2cc(Cl)ccc2[nH]1 (stereo not shown) [Example 150, (5-Chloro-1H-indol-2-yl)-{5-[1-(2-chloro-phenyl)-ethyl]-2,5-diaza-bicyclo[2.2.1]hept-2-yl}-methanone] gave an IC50 of 18.2 µM. For O=C(Nc1ccc(Oc2ccc(F)cc2)cc1)N1CC2CC1CN2C1CCc2cc(F)ccc2C1 (stereo not shown) [Example 102, 5-(6-Fluoro-1,2,3,4-tetrahydro-naphthalen-2-yl)-2,5-diaza-bicyclo[2.2.1]heptane-2-carboxylic acid [4-(4-fluoro-phenoxy)-phenyl]-amide], the IC50 was 0.71 µM. CC(c1ccccc1Cl)N1CC2CC1CN2C(=O)Nc1ccc(Oc2ccc(F)cc2)nc1 (stereo not shown) [Example 182, 5-[1-(2-Chloro-phenyl)-ethyl]-2,5-diaza-bicyclo[2.2.1]heptane-2-carboxylic acid [6-(4-fluoro-phenoxy)-pyridin-3-yl]-amide methanesulfonate salt] showed an IC50 of 0.27 µM. Compound Cc1cc(F)ccc1C(C)N1CC2CC1CN2C(=O)Nc1ccc(C(F)(F)F)cc1 (stereo not shown) [Example 65, 5-[1-(4-Fluoro-2-methyl-phenyl)-ethyl]-2,5-diaza-bicyclo[2.2.1]heptane-2-carboxylic acid (4-trifluoromethyl-phenyl)-amide] has an IC50 of 0.6 µM. Cc1ccccc1C(C)N1CC2CC1CN2C(=O)Nc1ccc(OCc2ccccc2)cc1 (stereo not shown) [Example 33, 5-(1-o-Tolyl-ethyl)-2,5-diaza-bicyclo[2.2.1]heptane-2-carboxylic acid (4-benzyloxy-phenyl)-amide] was tested, and the IC50 was 0.49 µM. O=C(Nc1ccc(Oc2ccccc2)cc1)N1CC2CC1CN2C1CCc2cccc(Cl)c21 (stereo not shown) [Example 141, 5-(7-Chloro-indan-1-yl)-2,5-diaza-bicyclo[2.2.1]heptane-2-carboxylic acid (4-phenoxy-phenyl)-amide] was tested, and the IC50 was 0.2 µM. CC(c1ccc(F)cc1)N1CC2CC1CN2C(=O)Nc1cccc(Oc2ccccc2)c1 (stereo not shown) [Example 49, 5-[1-(4-Fluoro-phenyl)-ethyl]-2,5-diaza-bicyclo[2.2.1]heptane-2-carboxylic acid (3-phenoxy-phenyl)-amide] was tested, and the IC50 was 1.08 µM. For CC(c1ccccc1Cl)N1CC2CC1CN2C(=O)c1ccc(Oc2cccc(C#N)c2)cc1 (stereo not shown) [Example 173, 3-(4-{5-[1-(2-Chloro-phenyl)-ethyl]-2,5-diaza-bicyclo[2.2.1]heptane-2-carbonyl}-phenoxy)-benzonitrile], the IC50 was 1.93 µM. For Cc1ccccc1C(C)N1CC2CC1CN2C(=O)Nc1ccc(OCC2CCCCO2)cc1 (stereo not shown) [Example 25, 5-(1-o-Tolyl-ethyl)-2,5-diaza-bicyclo[2.2.1]heptane-2-carboxylic acid [4-(tetrahydro-pyran-2-ylmethoxy)-phenyl]-amide], the IC50 was 5.38 µM. Compound CC(c1ccccc1C(F)(F)F)N1CC2CC1CN2C(=O)Nc1cccc(C(F)(F)F)c1 (stereo not shown) [Example 57, 5-[1-(2-Trifluoromethyl-phenyl)-ethyl]-2,5-diaza-bicyclo[2.2.1]heptane-2-carboxylic acid (3-trifluoromethyl-phenyl)-amide] has an IC50 of 5.13 µM. Work on Cc1ccccc1C(C)N1CC2CC1CN2C(=O)Nc1ccc(Cc2ccccc2)cc1 (stereo not shown) [Example 34, 5-(1-o-Tolyl-ethyl)-2,5-diaza-bicyclo[2.2.1]heptane-2-carboxylic acid (4-benzyl-phenyl)-amide] yielded an IC50 of 0.64 µM.

Same assay, conditions: hNav1.8 IC50, SH-SY-5Y hNav1.8 cells; FLIPR membrane potential dye; 10 μM pyrethroid, 250 nM TTX; test concentration range 100 μM-0.05 μM
Compound CC(c1c(F)cccc1Cl)N1CC2CC1CN2C(=O)Cc1ccc(Oc2ccc(F)cc2)cc1 (single isomer, unassigned) [Example 166, 1-{5-[1-(2-Chloro-6-fluoro-phenyl)-ethyl]-2,5-diaza-bicyclo[2.2.1]hept-2-yl}-2-[4-(4-fluoro-phenoxy)-phenyl]-ethanone] has an IC50 of 3.91 µM. With Cc1ccccc1C(C)N1CC2CC1CN2C(=O)Nc1ccc(Oc2ccc(F)cc2)cc1 (single isomer, unassigned) [Example 29, 5-(1-o-Tolyl-ethyl)-2,5-diaza-bicyclo[2.2.1]heptane-2-carboxylic acid [4-(4-fluoro-phenoxy)-phenyl]-amide] the IC50 was 0.34 µM. CC(c1ccccc1Br)N1CC2CC1CN2C(=O)Cc1ccc(Oc2ccc(F)cc2)cc1 (stereo not shown) [Example 153, 1-{5-[1-(2-Bromo-phenyl)-ethyl]-2,5-diaza-bicyclo[2.2.1]hept-2-yl}-2-[4-(4-fluoro-phenoxy)-phenyl]-ethanone] was tested, and the IC50 was 3.33 µM.
